Results: PubChem BioAssay (NCI)
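Tested at 5 concentrations; 48 h exposure; 96-well plates; endpoints linearly interpolated, else capped at highest concentration. TGI: concentration producing complete growth inhibition.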

Legend:
Experiment in all cases: inhibition of tumour cell growth, NCI panel, 48 h
[1] = tested on: A549 NSCLC
[2] = tested on: HCC-2998 colon
[3] = tested on: KM20L2 colon
[4] = tested on: HCT-116 colon
[5] = tested on: LOX IMVI melanoma
[6] = tested on: HL-60(TB) leukemia
[7] = tested on: HCT-15 colon
[8] = tested on: SF-539 CNS
[9] = tested on: SN12C renal
[10] = tested on: U251 CNS
[11] = tested on: NCI-H522 lung
[12] = tested on: CCRF-CEM leukemia
[13] = tested on: SK-MEL-5 melanoma
[14] = tested on: SF-268 CNS
[15] = tested on: SNB-78 CNS
[16] = tested on: SNB-75 CNS
[17] = tested on: NCI-H460 lung
[18] = tested on: CAKI-1 renal
[19] = tested on: SK-MEL-2 melanoma
[20] = tested on: MALME-3M melanoma
[21] = tested on: ACHN renal
[22] = tested on: MOLT-4 leukemia
[23] = tested on: UACC-257 melanoma
[24] = tested on: M19-MEL melanoma
[25] = tested on: NCI-H23 lung
[26] = tested on: TK-10 renal
[27] = tested on: SNB-19 CNS
[28] = tested on: HOP-18 NSCLC
[29] = tested on: OVCAR-4 ovarian
[30] = tested on: RXF 393 renal
[31] = tested on: UACC-62 melanoma
[32] = tested on: HT29 colon
[33] = tested on: DMS 273 small cell lung
[34] = tested on: SK-MEL-28 melanoma
[35] = tested on: HOP-62 NSCLC
[36] = tested on: SF-295 CNS
[37] = tested on: DMS 114 small cell lung
[38] = tested on: SR leukemia
[39] = tested on: OVCAR-5 ovarian
[40] = tested on: M14 melanoma
[41] = tested on: IGROV1 ovarian
[42] = tested on: RPMI-8226 leukemia
[43] = tested on: 786-0 renal
[44] = tested on: SK-OV-3 ovarian
[45] = tested on: LXFL 529 NSCLC
[46] = tested on: OVCAR-3 ovarian
[47] = tested on: OVCAR-8 ovarian
[48] = tested on: A498 renal
[49] = tested on: KM12 colon
[50] = tested on: DLD-1 colon
[51] = tested on: COLO 205 colon
[52] = tested on: K-562 leukemia
[53] = tested on: NCI-H226 lung
[54] = tested on: UO-31 renal
[55] = tested on: HOP-92 NSCLC
[56] = tested on: EKVX NSCLC
[57] = tested on: SW-620 colon
[58] = tested on: XF 498 CNS

COC(OC)c1cccc2c1C1(O)CCC3(CC21)OCCCCO3 (configuration not stated)
TGI [1]: > 100 µM | TGI [2]: > 100 µM | TGI [3]: > 100 µM | TGI [4]: > 100 µM | TGI [5]: > 100 µM | TGI [6]: > 100 µM | TGI [7]: > 100 µM | TGI [8]: > 100 µM | TGI [9]: > 100 µM | TGI [10]: > 100 µM | TGI [11]: > 100 µM | TGI [12]: > 100 µM | TGI [13]: > 100 µM | TGI [14]: > 100 µM | TGI [15]: > 100 µM | TGI [16]: > 100 µM | TGI [17]: > 100 µM | TGI [18]: > 100 µM | TGI [19]: > 100 µM | TGI [20]: > 100 µM | TGI [21]: > 100 µM | TGI [22]: > 100 µM | TGI [23]: > 100 µM | TGI [24]: > 100 µM | TGI [25]: > 100 µM | TGI [26]: > 100 µM | TGI [27]: > 100 µM | TGI [28]: > 100 µM | TGI [29]: > 100 µM | TGI [30]: > 100 µM | TGI [31]: > 100 µM | TGI [32]: > 100 µM | TGI [33]: > 100 µM | TGI [34]: > 100 µM | TGI [35]: > 100 µM | TGI [36]: > 100 µM | TGI [37]: > 100 µM | TGI [38]: > 100 µM | TGI [39]: > 100 µM | TGI [40]: > 100 µM | TGI [41]: > 100 µM | TGI [42]: > 100 µM | TGI [43]: > 100 µM | TGI [44]: > 100 µM | TGI [45]: > 100 µM | TGI [46]: > 100 µM | TGI [47]: > 100 µM | TGI [48]: > 100 µM | TGI [49]: > 100 µM | TGI [50]: > 100 µM | TGI [51]: > 100 µM | TGI [52]: > 100 µM | TGI [53]: > 100 µM | TGI [54]: > 100 µM

Cc1ccc(C(=O)C(C)N)cc1 (configuration not stated)
TGI [1]: > 100 µM | TGI [2]: > 100 µM | TGI [3]: > 100 µM | TGI [4]: > 100 µM | TGI [5]: > 100 µM | TGI [6]: > 100 µM | TGI [7]: > 100 µM | TGI [8]: > 100 µM | TGI [9]: > 100 µM | TGI [10]: > 100 µM | TGI [11]: > 100 µM | TGI [12]: > 100 µM | TGI [55]: > 100 µM | TGI [13]: > 100 µM | TGI [14]: > 100 µM | TGI [56]: > 100 µM | TGI [15]: > 100 µM | TGI [57]: > 100 µM | TGI [16]: > 100 µM | TGI [17]: > 100 µM | TGI [18]: > 100 µM | TGI [19]: > 100 µM | TGI [20]: > 100 µM | TGI [21]: > 100 µM | TGI [22]: > 100 µM | TGI [23]: > 100 µM | TGI [25]: > 100 µM | TGI [26]: > 100 µM | TGI [27]: > 100 µM | TGI [28]: > 100 µM | TGI [29]: > 100 µM | TGI [30]: > 100 µM | TGI [31]: > 100 µM | TGI [32]: > 100 µM | TGI [33]: > 100 µM | TGI [34]: > 100 µM | TGI [35]: > 100 µM | TGI [36]: > 100 µM | TGI [37]: > 100 µM | TGI [38]: > 100 µM | TGI [39]: > 100 µM | TGI [40]: > 100 µM | TGI [41]: > 100 µM | TGI [42]: > 100 µM | TGI [43]: > 100 µM | TGI [44]: > 100 µM | TGI [58]: > 100 µM | TGI [45]: > 100 µM | TGI [46]: > 100 µM | TGI [47]: > 100 µM | TGI [48]: > 100 µM | TGI [49]: > 100 µM | TGI [50]: > 100 µM | TGI [51]: > 100 µM | TGI [52]: > 100 µM | TGI [53]: > 100 µM | TGI [54]: > 100 µM

CCCCCCCCCCCC(=O)OCC1OC(n2cc(F)c(=O)[nH]c2=O)C(N)C(OC(=O)CCCCCCCCCCC)C1O (configuration not stated)
TGI [1]: > 100 µM | TGI [2]: > 100 µM | TGI [3]: > 100 µM | TGI [4]: > 100 µM | TGI [5]: > 100 µM | TGI [6]: > 100 µM | TGI [7]: > 100 µM | TGI [8]: > 100 µM | TGI [9]: > 100 µM | TGI [10]: > 100 µM | TGI [11]: > 100 µM | TGI [12]: > 100 µM | TGI [55]: 98.8 µM | TGI [13]: 30.5 µM | TGI [14]: > 100 µM | TGI [56]: > 100 µM | TGI [15]: > 100 µM | TGI [57]: > 100 µM | TGI [16]: > 100 µM | TGI [17]: > 100 µM | TGI [18]: > 100 µM | TGI [19]: > 100 µM | TGI [20]: > 100 µM | TGI [21]: > 100 µM | TGI [22]: > 100 µM | TGI [23]: > 100 µM | TGI [24]: > 100 µM | TGI [25]: > 100 µM | TGI [26]: > 100 µM | TGI [27]: > 100 µM | TGI [29]: > 100 µM | TGI [30]: > 100 µM | TGI [31]: > 100 µM | TGI [32]: > 100 µM | TGI [33]: > 100 µM | TGI [34]: > 100 µM | TGI [35]: > 100 µM | TGI [36]: > 100 µM | TGI [37]: > 100 µM | TGI [38]: > 100 µM | TGI [40]: > 100 µM | TGI [42]: > 100 µM | TGI [43]: > 100 µM | TGI [44]: > 100 µM | TGI [45]: > 100 µM | TGI [46]: > 100 µM | TGI [47]: > 100 µM | TGI [48]: > 100 µM | TGI [49]: > 100 µM | TGI [51]: > 100 µM | TGI [52]: > 100 µM | TGI [54]: > 100 µM

CC(c1ccc(Br)cc1)C(C(=O)O)C(=O)O (configuration not stated)
TGI [1]: > 100 µM | TGI [2]: > 100 µM | TGI [3]: > 100 µM | TGI [4]: > 100 µM | TGI [5]: > 100 µM | TGI [6]: > 100 µM | TGI [7]: > 100 µM | TGI [9]: > 100 µM | TGI [10]: > 100 µM | TGI [11]: > 100 µM | TGI [12]: > 100 µM | TGI [13]: > 100 µM | TGI [14]: > 100 µM | TGI [56]: > 100 µM | TGI [15]: > 100 µM | TGI [57]: > 100 µM | TGI [16]: > 100 µM | TGI [17]: > 100 µM | TGI [18]: > 100 µM | TGI [19]: > 100 µM | TGI [20]: > 100 µM | TGI [21]: > 100 µM | TGI [22]: > 100 µM | TGI [23]: > 100 µM | TGI [24]: > 100 µM | TGI [25]: > 100 µM | TGI [26]: > 100 µM | TGI [27]: > 100 µM | TGI [28]: > 100 µM | TGI [29]: > 100 µM | TGI [30]: > 100 µM | TGI [31]: > 100 µM | TGI [32]: > 100 µM | TGI [33]: > 100 µM | TGI [34]: > 100 µM | TGI [35]: > 100 µM | TGI [36]: > 100 µM | TGI [37]: > 100 µM | TGI [38]: > 100 µM | TGI [39]: > 100 µM | TGI [40]: > 100 µM | TGI [41]: > 100 µM | TGI [42]: > 100 µM | TGI [43]: > 100 µM | TGI [44]: > 100 µM | TGI [45]: > 100 µM | TGI [46]: > 100 µM | TGI [47]: > 100 µM | TGI [49]: > 100 µM | TGI [50]: > 100 µM | TGI [51]: > 100 µM | TGI [52]: > 100 µM | TGI [53]: > 100 µM | TGI [54]: > 100 µM
